According to ChEMBL document CHEMBL1156829 (Proc Natl Acad Sci U S A, 2008):
Where “and” joins values, the source holds several entries; their conditions need not be identical. Identical values can stand only once.

What was measured:
Plasmodium falciparum [1] = assay: NOVARTIS: Inhibition of Plasmodium falciparum W2 (drug-resistant) proliferation in erythrocyte-based infection assay; type: functional, organism-based; settings: read-out: EC50
Huh-7 = assay: NOVARTIS: Cytotoxicity against human hepatocellular carcinoma cell line (Huh7); type: toxicity, cell-based
Plasmodium falciparum [2] = assay: NOVARTIS: Inhibition of Plasmodium falciparum 3D7 (drug-susceptible) proliferation in erythrocyte-based infection assay; type: functional, organism-based

| SMILES | EC50 (Plasmodium falciparum [1]) | CC50 (Huh-7; huh-7, read-out: CC50) | EC50 (Plasmodium falciparum [2]) | EC50 (Plasmodium falciparum [1]; Plasmodium falciparum, W2) | CC50 (Huh-7; huh-7) | EC50 (Plasmodium falciparum [2]; Plasmodium falciparum, 3D7) |
| --- | --- | --- | --- | --- | --- | --- |
| CCN(CC)c1ccc(C=Cc2cccc[n+]2CC)cc1 [listing 1 of 2 here] | 290 nM | > 10000 nM | 2.44 nM | – | – | – |
| CCN1/C(=C/c2[se]c3ccccc3[n+]2CC)C=Cc2cc(OC)ccc21 | 266 nM | 4950 nM | 171 nM | – | – | – |
| OC(CN1CCN(C/C=C/c2ccccc2)CC1)Cn1c2ccc(Cl)cc2c2cc(Cl)ccc21 (centres undefined) | – | – | – | 162 nM | No fit | 660 nM |
| CCOC(=O)c1ccc(-n2c(C)cc(/C=C3\SC(=Nc4ccc(Cl)cc4)NC3=O)c2C)cc1 | 1420 nM | > 100000 nM | 844 nM and 3370 nM | 1700 nM | – | – |
| CCN1/C(=C/c2ccc3cc(C)ccc3[n+]2C)Sc2ccc3ccsc3c21 | 843 nM | > 10000 nM and 55900 nM | 951 nM and 371 nM | > 1250 nM | – | – |
| CC[n+]1c(/C=C2\Sc3cc(C)ccc3N2CCO)ccc2ccccc21 | 861 nM and 228 nM | > 10000 nM and 21300 nM | 1200 nM and 195 nM | – | – | – |
| CCCC[n+]1c(C=C2C=Cc3ccccc3N2CC)sc2ccccc21 | 228 nM | 6120 nM | 81.5 nM | – | – | – |
| C=C[C@H]1C[N@]2CC[C@H]1C[C@@H]2[C@@H](OC(=O)Cc1cccs1)c1ccnc2ccccc12 | 78.7 nM | > 10000 nM and 95100 nM | 9.8 nM and 62.2 nM | 46.6 nM | – | – |
| CC[n+]1c(C=CN(C)c2ccccc2)sc2ccc(OC)cc21.[O-][Cl+3]([O-])([O-])[O-] | – | > 100000 nM | – | 255 nM | – | 145 nM |
| CC[n+]1ccccc1C=Cc1ccc(N(C)C)cc1 | 1270 nM and 271 nM and 380 nM | 15200 nM and > 10000 nM and > 100000 nM | 260 nM and 350 nM | – | – | 364 nM |
| C/C(C=NNC(=O)c1ccco1)=C\c1ccccc1 | 650 nM | > 100000 nM | > 1760 nM and 486 nM | > 1100 nM | – | – |
| CC[n+]1c(C=C2Sc3ccccc3N2CCO)sc2ccccc21 | > 1480 nM | > 10000 nM | 1410 nM | – | – | – |
| CCN(CC)c1ccc(C=Cc2cccc[n+]2CC)cc1 [listing 2 of 2 here] | 131 nM | 44900 nM | 88.5 nM | – | – | – |
| CC[n+]1c(/C=C/N(C)c2ccccc2)n(-c2ccccc2)c2ccc(-c3nc4ccccc4s3)cc21 | > 1730 nM and 314 nM | > 10000 nM and 26900 nM | > 929 nM and 460 nM | – | – | – |
| CN(C)c1ccc(C=CC=Cc2cccc[n+]2C)cc1.[O-][Cl+3]([O-])([O-])[O-] | – | > 100000 nM | – | 178 nM | – | 283 nM |
| CCN1/C(=C/C=C/c2sc3ccccc3[n+]2CC)Sc2ccccc21 [ALAZANINE] | 1060 nM | 27000 nM | – | – | – | 200 nM |

| SMILES | EC50 (Plasmodium falciparum [1]) | CC50 (Huh-7; huh-7, read-out: CC50) | EC50 (Plasmodium falciparum [2]) | EC50 (Plasmodium falciparum [1]; Plasmodium falciparum, W2) | CC50 (Huh-7; huh-7) | EC50 (Plasmodium falciparum [2]; Plasmodium falciparum, 3D7) |
| --- | --- | --- | --- | --- | --- | --- |
| CC[n+]1c(/C=C/c2ccc(N(C)C)cc2)sc2cc(NC(C)=O)ccc21 | 686 nM and 341 nM | > 100000 nM | 1500 nM | – | – | 953 nM |
| CCN1/C(=C/c2sc3ccccc3[n+]2CC)Sc2ccccc21 [listing 1 of 2 here] | 248 nM | 32600 nM | 557 nM | – | – | – |
| CCN1/C(=C/c2sc3ccccc3[n+]2CC)Sc2ccccc21 [listing 2 of 2 here] | 10.8 nM | 11100 nM | 187 nM | – | – | – |
| C[n+]1ccc(C=Cc2ccc(O)cc2)cc1 | 175 nM | > 10000 nM | 303 nM | – | – | – |
| CN(C)c1ccc(C=CC=Cc2cc[n+](C)cc2)cc1.[O-][Cl+3]([O-])([O-])[O-] | – | > 100000 nM | – | 532 nM | – | 770 nM |
| C[n+]1ccc(/C=C/c2c[nH]c3ccccc23)cc1 | 95.9 nM | > 100000 nM | 136 nM and 472 nM | 63.2 nM | – | – |
| CC[n+]1c(/C=C/N2CCCc3ccccc32)ccc2ccccc21 | – | 2340 nM | – | 145 nM | – | 75.7 nM |
| CC[n+]1c(C=CN(C)c2ccccc2)sc2ccc(Cl)cc21 | 367 nM | > 10000 nM and 23000 nM | 223 nM | 352 nM | – | 156 nM |
| CCCCN1C(=Cc2cccc[n+]2C)Sc2cc(NC(C)=O)ccc21 | > 1250 nM | > 10000 nM | – | – | – | > 1110 nM |
| C[n+]1c2ccccc2nc2ccc(NCCc3cnc[nH]3)cc21 | – | – | – | 405 nM | No fit | 139 nM |
| O=C(NCCc1ccccc1)C1CCC(Cn2c(=S)[nH]c3ccccc3c2=O)CC1 (centres undefined) | – | – | – | 1750 nM | No fit | > 1650 nM |
| C=C(c1ccccc1)[n+]1ccc(/C=C/c2ccccc2O)cc1 | 289 nM | > 10000 nM and 92700 nM | 355 nM and 739 nM | 277 nM | – | – |
| COc1ccc2c(ccc(/C=C3\C=CC=CN3C)[n+]2C)c1 | 524 nM | > 100000 nM | 581 nM | 886 nM | – | 316 nM |
| Cc1cccc(N=C2NC(=O)/C(=C\c3ccc(N(C)C)cc3)S2)c1 | 1640 nM and 508 nM | > 100000 nM | 1180 nM | – | – | 784 nM |
| C=CC[n+]1c(C=C2C=CC=CN2C)sc2ccccc21 | 403 nM | > 100000 nM | 281 nM | – | – | – |
| Cc1ccc(N=C2NC(=O)/C(=C\c3ccc(N(C)C)cc3)S2)cc1 | 488 nM and 1250 nM | > 100000 nM | 615 nM and 1470 nM | – | – | – |
